Assay results: paper PMC8523698, “Preclinical characterization of an intravenous coronavirus 3CL protease inhibitor for the potential treatment of COVID19” (Nature Communications, 2021)

How the values were obtained:
NL63-CoV 3CL^pro = NL63-CoV 3CL^pro (Human coronavirus NL63, UniProt P0C6X5); format: biochemical
Human Cathepsin D = Human Cathepsin D (Homo sapiens, UniProt P07339); assay: Mammalian protease panel; format: biochemical
[1] = Metabolic stability and enzyme kinetics in liver S9 (conversion to PF-00835231); details: for Km at 20 min / microsomal CLint: dog

NL63-CoV 3CL^pro, sequence (P0C6X5 2940-3242): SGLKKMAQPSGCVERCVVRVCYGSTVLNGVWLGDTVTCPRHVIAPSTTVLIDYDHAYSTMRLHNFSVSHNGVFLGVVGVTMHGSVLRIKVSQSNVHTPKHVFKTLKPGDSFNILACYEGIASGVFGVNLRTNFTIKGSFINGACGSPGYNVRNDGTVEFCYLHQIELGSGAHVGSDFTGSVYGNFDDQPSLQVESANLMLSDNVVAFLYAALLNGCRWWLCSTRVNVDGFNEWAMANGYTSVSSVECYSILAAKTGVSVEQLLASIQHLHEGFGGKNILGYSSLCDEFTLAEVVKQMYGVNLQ
Human Cathepsin D, sequence (P07339 65-412): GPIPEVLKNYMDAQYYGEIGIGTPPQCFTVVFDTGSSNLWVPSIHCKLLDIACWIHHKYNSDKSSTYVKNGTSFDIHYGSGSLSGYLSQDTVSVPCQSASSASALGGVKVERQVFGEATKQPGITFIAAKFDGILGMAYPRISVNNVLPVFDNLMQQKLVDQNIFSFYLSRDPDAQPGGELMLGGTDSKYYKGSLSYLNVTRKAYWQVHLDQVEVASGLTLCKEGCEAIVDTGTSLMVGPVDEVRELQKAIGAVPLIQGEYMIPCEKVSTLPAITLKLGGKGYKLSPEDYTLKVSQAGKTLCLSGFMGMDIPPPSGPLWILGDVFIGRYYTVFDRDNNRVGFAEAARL

Row | Structure (SMILES) | Ki (NL63-CoV 3CL^pro) | IC50 (Human Cathepsin D) | Vmax ([1]; Dog, best-fit, Two enzyme: MM + Unsaturable) | Km at 20 min ([1]; dog liver S9, pH 7.5, KM) | Km at 20 min ([1]; dog liver S9, pH 7.5, Km, Dog, best-fit, Two enzyme: MM + Unsaturable) | microsomal CLint ([1]; liver S9, pH 7.5, CL, unsaturable component, best-fit) | microsomal CLint ([1]; liver S9, pH 7.5, CLint total, Dog, (vmax / KM) + CL) | microsomal CLint ([1]; liver S9, pH 7.5, CLint,app) | microsomal CLint ([1]; liver S9, pH 7.5, CLintu (unbound CLint))
1 | COc1cccc2[nH]c(C(=O)N[C@@H](CC(C)C)C(=O)N[C@@H](C[C@@H]3CCNC3=O)C(=O)CO)cc12 [PF-00835231] | 0.77 ± 0.52 nM | > 11000 nM | – | – | – | – | – | – | –
2 | COc1cccc2[nH]c(C(=O)N[C@@H](CC(C)C)C(=O)N[C@@H](C[C@@H]3CCNC3=O)C(=O)COP(=O)(O)O)cc12 [PF-07304814] | – | – | 213.7 pmol/min/mg | 2.91 µM | 2.91 µM | 1.69 µL/min/mg | 75.2 µL/min/mg | 75.2 µL/min/mg | 84 µL/min/mg
